# Experimental data: PMC4104973 (IUCrJ, 2013)
# Tests used:
# [1] = biological target: T1, WcbI (Burkholderia pseudomallei, UniProt Q63R74); settings: absolute Tm at 1 mM ligand (no ligand 37.4 ± 0.4 °C); 10 mM HEPES pH 7.0, 150 mM NaCl
# [2] = biological target: T1, WcbI; settings: covalent (disulfide to Cys14); co-crystallized with 200 µM acetyl-CoA; native structure 4BQO (1.56 Å) holds non-covalent CoA carried from E. coli
# [3] = biological target: T1, WcbI; assay: biochemical
# T1 sequence (Q63R74 1-312 limits assumed): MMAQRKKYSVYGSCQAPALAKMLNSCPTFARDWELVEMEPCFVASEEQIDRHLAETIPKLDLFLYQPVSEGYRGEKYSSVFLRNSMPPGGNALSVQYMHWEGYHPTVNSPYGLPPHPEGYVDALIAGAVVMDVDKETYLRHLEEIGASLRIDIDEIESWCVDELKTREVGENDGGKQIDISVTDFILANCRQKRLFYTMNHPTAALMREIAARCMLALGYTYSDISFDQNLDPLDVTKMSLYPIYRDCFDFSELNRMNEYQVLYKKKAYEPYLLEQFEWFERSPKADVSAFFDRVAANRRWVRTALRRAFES
SMILES,T m ± SD ^† (°C) [1] [°C],"X-ray crystal structure, 1.38 Å [2]",Kd [3] [µM]
CC(=O)SCCNC(=O)CCNC(=O)[C@H](O)C(C)(C)COP(=O)(O)OP(=O)(O)OC[C@H]1O[C@@H](n2cnc3c(N)ncnc32)[C@H](O)[C@@H]1OP(=O)(O)O [acetyl-CoA],45.6 ± 0.5,–,–
CC(C)(COP(=O)(O)OP(=O)(O)OC[C@H]1O[C@@H](n2cnc3c(N)ncnc32)[C@H](O)[C@@H]1OP(=O)(O)O)[C@@H](O)C(=O)NCCC(=O)NCCS [coenzyme A],46.2 ± 0.2,4bqn for WcbI covalently bound to coenzyme A and 4bqo for the native structure,58 ± 2
